Patent US4374146A, “Topical inflammatory pharmaceutical formulations” (Burroughs Wellcome Co., priority 1980, dated 1983)
Where two headings read alike, the source gives them in different places.

What was measured:
methemoglobinemia [1] = test: Methemoglobinemia (cyanosis), rat; conditions: for Methemoglobinemia (Cyanosis): rat, @ 500 mg/kg p.o.
acetic acid writhing [2] = test: Acetic Acid Writhing Test (AAWT), rat; assay type: in vivo; conditions: po, read-out: AAWT ED50
Description: (§1) A. Acetic Acid Writhing Test (AAWT)
(§2) Using the procedure described by Koster et al. in Fed. Proc. 18, 412 (1959) and Vinegar et al. in Handbook of Experimental Pharmacology, 50-2, ch.

[3] = test system: trypsin hyperalgesia, rat hindlimb; test: Trypsin Hyperalgesic Assay (THA), rat hindlimb; assay type: in vivo; conditions: for ED50: po, read-out: THA ED50; for Duration of Analgesia, time in hours to reduce -1.5 × THA ED50 to 40% inhibition: rat
Description: B. Trypsin Hyperalgesic Assay (THA)

[4] = Acute toxicity assay, rat; conditions: in vivo
Experimental: Four non-fasted male rats of 160-250 gram body weight were used for each dose level. The compound was injected by the indicated route and the symptom onset time, the intensity of the effect and the duration during a 4 hour observation period are recorded. The LD50 estimated is based on a 7 day observation and is determined by the method of Miller and Tainter (Proc. Soc. Exp. Biol. Med. 57:261, 1944).

[5] = Acute toxicity assay, mouse; conditions: in vivo
[6] = test system: carrageenin pleurisy (3 hr exudate volume, mobilized neutrophils); test: Carrageenin Pleurisy Assay (CPA); assay type: in vivo, rat; conditions: for ED50: Rattus norvegicus, Neutrophil, po; for CPA Local activity (inactive at stated dose): inactive at 1.0 mg/rat
Experimental: (§3) A. Carrageenin Pleurisy Assay (CPA)
(§4) Following the procedure described by Vinegar et al. in European J. Rheumatology and Inflammation, 1, 204, (1978) the acute anti-inflammatory activity of the compound of formula (I) was compared with that of known anti-inflammatory drugs. Two assays were performed: in the first, the average 3 hr exudate volume for each drug-treated group was determined and the % inhibition relative to solvent-fed control animals calculated, the ED50 being the dose required to reduce the 3 hr exudate volume by 50%; in the second, the number of mobilized neutrophils was quantified and the % inhibition relative to solvent-fed control animals calculated, the ED50 being the dose required to reduce the number of neutrophils mobilized at 3 hrs by 50%.

rat liver, rat kidney [7] = test: Histopathology, rat liver and kidney; conditions: for Histopathology, Rat Kidney / Histopathology, Rat Liver: @ 40% LD50, i.p.
[8] = test system: carrageenin pleurisy in Adrex; test: AI activity in Adrex, carrageenin pleurisy p.o.; assay type: in vivo, rat; conditions: CP p.o.; for AI Activity in Adrex, Vol.: exudate volume
Experimental: as §3, §4

[9] = test system: yeast-induced hyperthermia; test: Yeast-Induced Hyperthermia Assay; assay type: in vivo, rat; conditions: for ED50: po, rat
Description: The Yeast-Induced Hyperthermia Assay was used according to the procedure described by Khalili-Varasteh et al. in Arch. Int. Pharmacodyn.

methemoglobinemia [10] = test: Methemoglobinemia (cyanosis), dog; conditions: for Methemoglobinemia (Cyanosis): dog
[11] = test system: mouse liver, mouse kidney; test: Histopathology, mouse liver and kidney
hepatic glutathione = test: Hepatic glutathione depletion in mouse; assay type: in vivo; conditions: for Hepatic Gluathione Depletion: @ 40% of LD50, i.p. in mouse, over a 5 hr period
acetic acid writhing [12] = test: Acetic Acid Writhing Test (AAWT), mouse; assay type: in vivo; conditions: po, read-out: AAWT ED50
Description: as §1, §2

[13] = test system: mouse liver, mouse kidney; conditions: in vivo, ip
rat liver, rat kidney [14] = conditions: in vivo, ip
hot plate analgesia = test: Hot plate assay for strong analgesic activity; conditions: in vivo
prostaglandin synthetase = test: Prostaglandin synthetase inhibition; assay type: biochemical
opiate receptors = test: Opiate receptor binding in vitro
platelet aggregation = test: Platelet aggregation inhibition
peroxidase = test: Peroxidase inhibition; assay type: biochemical
gastric damage [15] = test: Gastric damage in the rat; assay type: in vivo
gastric damage [16] = test: Gastric damage (general statement); conditions: in vivo
[17] = test system: analgesic activity (naloxone); test: Naloxone antagonism of analgesic activity; conditions: in vivo
lipoxygenase = test: Lipoxygenase inhibition; assay type: biochemical
[18] = dose reducing 3 hr exudate volume by 50%, read-out: CPA ED50, Vol.

## CCOc1ccc(NC(C)=O)cc1 [Phenacetin, p-ethoxyacetanilide]
Methemoglobinemia [1]
  Methemoglobinemia (Cyanosis): Yes
Acetic acid writhing [2]; Rattus norvegicus
  ED50: 46 ± 10.1 mg/kg
[3]; Rattus norvegicus
  ED50: 69 ± 11.6 mg/kg
[3]; p.o.
  Duration of Analgesia, time in hours to reduce -1.5 × THA ED50 to 40% inhibition: 5.7 h
[4]; ip, 7 day observation
  LD50 at 168 h: 900 mg/kg
[4]; po, 7 day observation
  LD50 at 168 h: 2900 mg/kg
[5]; ip
  LD50 at 168 h: 620 mg/kg
[5]; po
  LD50 at 168 h: 2500 mg/kg
[6]
  Duration of AI Activity, time in hrs to reduce 2 × CP cell ED50 to 40% inhibition of Vol.: Cells: 7.0 h
  Duration of AI Activity, time in hrs to reduce 2 × CP cell ED50 to 40% inhibition of Vol.: Vol.: 10.5 h
[6]; 3 h, read-out: CPA ED50, Cells
  ED50: 110 ± 15.5 mg/kg
[6]; 3 h, read-out: CPA ED50, Vol.
  ED50: 102 ± 14.6 mg/kg
[6]; local
  CPA Local activity (inactive at stated dose): Inactive
Rat liver, rat kidney [7]
  Histopathology, Rat Kidney: -
  Histopathology, Rat Liver: -
[8]
  AI Activity in Adrex, Cells: Inactive
[9]
  ED50: 55 ± 28.6 mg/kg
Methemoglobinemia [10]; @ 100 mg/kg p.o.
  Methemoglobinemia (Cyanosis): Yes
Methemoglobinemia [10]; relatively low dose levels
  Methemoglobinaemia: produces severe methemoglobinaemia at relatively low dose levels
[11]; @ 40% LD50, i.p.
  Histopathology, Mouse Kidney: -
  Histopathology, Mouse Liver: -
Hepatic glutathione
  Hepatic Gluathione Depletion: + (90% depletion over a 5 hr period)
Acetic acid writhing [12]; Mus musculus
  ED50: 116 ± 14.5 mg/kg

## CC(=O)Nc1ccc(O)cc1 [Acetaminophen]
Methemoglobinemia [1]
  Methemoglobinemia (Cyanosis): No
[3]; rat hindlimb, p.o.
  ED50: 95 ± 17.2 mg/kg
[4]; ip
  LD50 at 168 h: 1640 mg/kg
[13]
  Histopathology, Mouse Kidney: +
  Histopathology, Mouse Liver: +
[5]; ip
  LD50 at 168 h: 880 mg/kg
[5]; po
  LD50 at 168 h: 1640 mg/kg
[6]
  Duration of AI Activity, time in hrs to reduce 2 × CP cell ED50 to 40% inhibition of Vol.: Cells: 3.8 h
  Duration of AI Activity, time in hrs to reduce 2 × CP cell ED50 to 40% inhibition of Vol.: Vol.: 2.2 h
[6]; [18]
  ED50: 172 ± 22.4 mg/kg
[6]; local
  CPA Local activity (inactive at stated dose): Inactive
[8]
  AI Activity in Adrex, Cells: Weakly Active
  AI Activity in Adrex, Vol.: Active
[9]
  ED50: 72 ± 8.6 mg/kg
Methemoglobinemia [10]; @ 100 mg/kg p.o.
  Methemoglobinemia (Cyanosis): No
Hepatic glutathione
  Hepatic Gluathione Depletion: + (90% depletion over a 5 hr period)
Acetic acid writhing [12]; mouse, p.o.
  ED50: 301 ± 11.5 mg/kg
Rat liver, rat kidney [14]
  Histopathology, Rat Kidney: +
  Histopathology, Rat Liver: +

## COc1ccc2c3c1O[C@H]1[C@@H](O)C=C[C@H]4[C@@H](C2)N(C)CC[C@@]341 [Codeine]
Hot plate analgesia
  Activity in hot plate assay for strong analgesic activity: active

## CC(=O)Nc1ccc2c(c1)OCO2 [Compound of formula (I), N-(1,3-benzodioxol-5-yl)acetamide]
Methemoglobinemia [1]
  Methemoglobinemia (Cyanosis): No
Methemoglobinemia [1]; rats, high oral doses
  Methemoglobinaemia: not been shown
Prostaglandin synthetase
  Prostaglandin synthetase inhibition: is not a prostaglandin synthetase, lipoxygenase or peroxidase inhibitor
Acetic acid writhing [2]; rat, p.o.
  ED50: 50 ± 0.6 mg/kg
Opiate receptors
  Binding to opiate receptors in vitro: does not bind to opiate receptors in vitro
Platelet aggregation
  Platelet aggregation inhibition: does not produce the gastric damage or platelet aggregation inhibition
[3]; injected intracerebroventricularly (I.C.V.)
  Activity in trypsin hyperalgesic assay, I.C.V.: inactive
[3]; rat hindlimb, p.o.
  ED50: 20 ± 5.1 mg/kg
[3]; p.o.
  Duration of Analgesia, time in hours to reduce -1.5 × THA ED50 to 40% inhibition: 8.0 h
[4]; ip, 7 day observation
  LD50 at 168 h: 410 mg/kg
[4]; po, 7 day observation
  LD50 at 168 h: 1000 mg/kg
[5]; ip
  LD50 at 168 h: 250 mg/kg
[5]; po
  LD50 at 168 h: 660 mg/kg
[6]
  Duration of AI Activity, time in hrs to reduce 2 × CP cell ED50 to 40% inhibition of Vol.: Cells: 6 h
  Duration of AI Activity, time in hrs to reduce 2 × CP cell ED50 to 40% inhibition of Vol.: Vol.: 6 h
[6]; [18]
  ED50: 34 ± 2.2 mg/kg
[6]; dose reducing neutrophils mobilized at 3 hrs by 50%, read-out: CPA ED50, Cells
  ED50: 49 ± 6.8 mg/kg
[6]; carrageenin pleurisy assay
  Anti-inflammatory activity in the rat: comparable with aspirin
[6]; local
  CPA Local activity (inactive at stated dose): Inactive
Rat liver, rat kidney [7]
  Histopathology, Rat Kidney: -
  Histopathology, Rat Liver: -
Rat liver, rat kidney [7]; rat
  Histopathological evidence of hepatic or renal damage: not been shown to produce histopathological evidence of hepatic or renal damage
[8]
  AI Activity in Adrex, Cells: Active
  AI Activity in Adrex, Vol.: Active
peroxidase
  Peroxidase inhibition: is not a prostaglandin synthetase, lipoxygenase or peroxidase inhibitor
Hot plate analgesia
  Activity in hot plate assay for strong analgesic activity: inactive
[9]
  ED50: 57 mg/kg
[9]; yeast-induced hyperthermia
  Antipyretic activity in the rat: comparable with aspirin and phenacetin
Gastric damage [15]; after 80 mg/kg
  Gastric damage in the rat: does not produce gastric damage
Gastric damage [16]
  Gastric damage associated with aspirin-like drugs: does not produce the gastric damage
Methemoglobinemia [10]; @ 200 mg/kg p.o.
  Methemoglobinemia (Cyanosis): Slight
Methemoglobinemia [10]; dogs, high dose levels
  Methemoglobinaemia: has produced methemoglobinaemia in dogs at high dose levels
[11]; mouse
  Histopathological evidence of hepatic or renal damage: not been shown to produce histopathological evidence of hepatic or renal damage
[17]
  Inhibition of analgesic activity by naloxone: not inhibited by naloxone
Hepatic glutathione; mouse
  Depletion of hepatic glutathione: not been shown
lipoxygenase
  Lipoxygenase inhibition: is not a prostaglandin synthetase, lipoxygenase or peroxidase inhibitor

## CN1CC[C@]23c4c5ccc(O)c4O[C@H]2[C@@H](O)C=C[C@H]3[C@H]1C5 [Morphine]
Hot plate analgesia
  Activity in hot plate assay for strong analgesic activity: active

## CC(=O)Oc1ccccc1C(=O)O [Aspirin]
Acetic acid writhing [2]; Rattus norvegicus
  ED50: 21 ± 3.4 mg/kg
[3]
  Activity in trypsin hyperalgesic assay: essentially inactive
[3]; rat hindlimb, p.o., inactive at 360 mg/kg
  THA activity (inactive at stated dose): Inactive
[4]; ip, 7 day observation
  LD50 at 168 h: 500 mg/kg
[5]; ip
  LD50 at 168 h: 220 mg/kg
[5]; po
  LD50 at 168 h: 1100 mg/kg
[6]
  Duration of AI Activity, time in hrs to reduce 2 × CP cell ED50 to 40% inhibition of Vol.: Cells: 3.0 h
  Duration of AI Activity, time in hrs to reduce 2 × CP cell ED50 to 40% inhibition of Vol.: Vol.: 35.0 h
[6]; 3 h, read-out: CPA ED50, Cells
  ED50: 75 ± 7.5 mg/kg
[6]; 3 h, read-out: CPA ED50, Vol.
  ED50: 28 ± 3.2 mg/kg
[6]; local
  CPA ED50, Local: 0.04 mg/rat
[8]
  AI Activity in Adrex, Cells: Inactive
  AI Activity in Adrex, Vol.: Active
[9]
  ED50: 50 ± 8.1 mg/kg
Gastric damage [15]; single oral dose of 30 mg/kg
  Gastric damage in the rat: produces ulcers and haemorrhages
Acetic acid writhing [12]; Mus musculus
  ED50: 301 ± 21.1 mg/kg
